# Reference: PubChem BioAssay (NCI)
#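 The compound was tested at five concentrations on cells cultured in 96-well plates, with a 48-hour exposure period. TGI marks complete inhibition of growth.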
# What was measured:
# Assay in all cases: growth of human tumour cells (NCI), 48 h
# MDA-MB-231 breast = test system: MDA-MB-231 breast
# IGROV1 ovarian = test system: IGROV1 ovarian
# SK-MEL-2 melanoma = test system: SK-MEL-2 melanoma
# OVCAR-3 ovarian = test system: OVCAR-3 ovarian
# OVCAR-8 ovarian = test system: OVCAR-8 ovarian
# HOP-62 NSCLC = test system: HOP-62 NSCLC
# HT29 colon = test system: HT29 colon
# KM12 colon = test system: KM12 colon
# SF-268 CNS = test system: SF-268 CNS
# PC-3 prostate = test system: PC-3 prostate
# SF-295 CNS = test system: SF-295 CNS
# 786-0 renal = test system: 786-0 renal
# M14 melanoma = test system: M14 melanoma
# HL-60(TB) leukemia = test system: HL-60(TB) leukemia
# NCI/ADR-RES ovarian = test system: NCI/ADR-RES ovarian
# A549 NSCLC = test system: A549 NSCLC
# U251 CNS = test system: U251 CNS
# MDA-N = test system: MDA-N
# DU-145 prostate = test system: DU-145 prostate
# SNB-19 CNS = test system: SNB-19 CNS
# TK-10 renal = test system: TK-10 renal
# MOLT-4 leukemia = test system: MOLT-4 leukemia
# MCF7 breast = test system: MCF7 breast
# SK-MEL-5 melanoma = test system: SK-MEL-5 melanoma
# MALME-3M melanoma = test system: MALME-3M melanoma
# NCI-H460 lung = test system: NCI-H460 lung
# HCC-2998 colon = test system: HCC-2998 colon
# HOP-92 NSCLC = test system: HOP-92 NSCLC
# HCT-15 colon = test system: HCT-15 colon
# SK-MEL-28 melanoma = test system: SK-MEL-28 melanoma
# SW-620 colon = test system: SW-620 colon
# UACC-257 melanoma = test system: UACC-257 melanoma
# A498 renal = test system: A498 renal
# UACC-62 melanoma = test system: UACC-62 melanoma
# K-562 leukemia = test system: K-562 leukemia
# BT-549 breast = test system: BT-549 breast
# CAKI-1 renal = test system: CAKI-1 renal
# MDA-MB-435 = test system: MDA-MB-435
# ACHN renal = test system: ACHN renal
# EKVX NSCLC = test system: EKVX NSCLC
# NCI-H226 lung = test system: NCI-H226 lung
# NCI-H23 lung = test system: NCI-H23 lung
# HCT-116 colon = test system: HCT-116 colon
# HS 578T breast = test system: HS 578T breast
# NCI-H522 lung = test system: NCI-H522 lung
# LOX IMVI melanoma = test system: LOX IMVI melanoma
# RXF 393 renal = test system: RXF 393 renal
# RPMI-8226 leukemia = test system: RPMI-8226 leukemia
# UO-31 renal = test system: UO-31 renal
# OVCAR-5 ovarian = test system: OVCAR-5 ovarian
# COLO 205 colon = test system: COLO 205 colon
# SR leukemia = test system: SR leukemia
# SN12C renal = test system: SN12C renal
# SF-539 CNS = test system: SF-539 CNS
# OVCAR-4 ovarian = test system: OVCAR-4 ovarian
# T-47D breast = test system: T-47D breast
# CCRF-CEM leukemia = test system: CCRF-CEM leukemia
smiles,measurement,setting,value
O=CC1C[C@@H](N2C(=O)O[C@@H](c3ccccc3)[C@H]2c2ccccc2)[C@@H]1COCc1ccccc1 (stereo not given in full),TGI,MDA-MB-231 breast,30.7 µM
same,TGI,IGROV1 ovarian,35.4 µM
same,TGI,SK-MEL-2 melanoma,30.8 µM
same,TGI,OVCAR-3 ovarian,36.4 µM
same,TGI,OVCAR-8 ovarian,55.9 µM
same,TGI,HOP-62 NSCLC,44.5 µM
same,TGI,HT29 colon,37.8 µM
same,TGI,KM12 colon,> 100 µM
same,TGI,SF-268 CNS,37.1 µM
same,TGI,PC-3 prostate,43.1 µM
same,TGI,SF-295 CNS,39.9 µM
same,TGI,786-0 renal,31.2 µM
same,TGI,M14 melanoma,34.2 µM
same,TGI,HL-60(TB) leukemia,56.7 µM
same,TGI,NCI/ADR-RES ovarian,83.6 µM
same,TGI,A549 NSCLC,> 100 µM
same,TGI,U251 CNS,30.1 µM
same,TGI,MDA-N,38.1 µM
same,TGI,DU-145 prostate,35.7 µM
same,TGI,SNB-19 CNS,37.6 µM
same,TGI,TK-10 renal,44.5 µM
same,TGI,MOLT-4 leukemia,84.4 µM
same,TGI,MCF7 breast,55.1 µM
same,TGI,SK-MEL-5 melanoma,29.1 µM
same,TGI,MALME-3M melanoma,31.5 µM
same,TGI,NCI-H460 lung,41.7 µM
same,TGI,HCC-2998 colon,34.9 µM
same,TGI,HOP-92 NSCLC,30.3 µM
same,TGI,HCT-15 colon,36.3 µM
same,TGI,SK-MEL-28 melanoma,40.4 µM
same,TGI,SW-620 colon,77.1 µM
same,TGI,UACC-257 melanoma,41.7 µM
same,TGI,A498 renal,49.2 µM
same,TGI,UACC-62 melanoma,39.9 µM
same,TGI,K-562 leukemia,> 100 µM
same,TGI,BT-549 breast,43.3 µM
same,TGI,CAKI-1 renal,> 100 µM
same,TGI,MDA-MB-435,51.4 µM
same,TGI,ACHN renal,73.2 µM
same,TGI,EKVX NSCLC,43.2 µM
same,TGI,NCI-H226 lung,42.2 µM
same,TGI,NCI-H23 lung,33.4 µM
same,TGI,HCT-116 colon,32.8 µM
same,TGI,HS 578T breast,72.3 µM
same,TGI,NCI-H522 lung,34 µM
same,TGI,LOX IMVI melanoma,38.6 µM
same,TGI,RXF 393 renal,46.3 µM
same,TGI,RPMI-8226 leukemia,> 100 µM
same,TGI,UO-31 renal,29.3 µM
same,TGI,OVCAR-5 ovarian,52.3 µM
same,TGI,COLO 205 colon,42 µM
same,TGI,SR leukemia,45.7 µM
same,TGI,SN12C renal,48 µM
same,TGI,SF-539 CNS,37 µM
same,TGI,OVCAR-4 ovarian,> 100 µM
CC1OC(OC2C(O[C@@H]3C[C@@H]4CC[C@@H]5[C@H](CC[C@]6(C)C7C(C[C@@H]56)O[C@]5(CC[C@@H](C)CO5)[C@H]7C)[C@@]4(C)C[C@H]3O)OC(CO)C(O)C2O)C(O)C(O)C1O (stereo not given in full),TGI,T-47D breast,3.7 µM
same,TGI,MDA-MB-231 breast,3.19 µM
same,TGI,OVCAR-3 ovarian,3.02 µM
same,TGI,SF-268 CNS,3.5 µM
same,TGI,SF-295 CNS,3.2 µM
same,TGI,HL-60(TB) leukemia,4.48 µM
same,TGI,MDA-N,13.6 µM
same,TGI,DU-145 prostate,3.13 µM
same,TGI,SNB-19 CNS,33 µM
same,TGI,TK-10 renal,3.06 µM
same,TGI,SK-MEL-5 melanoma,4.22 µM
same,TGI,MALME-3M melanoma,3.15 µM
same,TGI,HCC-2998 colon,3.21 µM
same,TGI,HOP-92 NSCLC,6.25 µM
same,TGI,HCT-15 colon,3.27 µM
same,TGI,CCRF-CEM leukemia,3.52 µM
same,TGI,SK-MEL-28 melanoma,3.43 µM
same,TGI,UACC-257 melanoma,3.35 µM
same,TGI,A498 renal,5.29 µM
same,TGI,UACC-62 melanoma,3.16 µM
same,TGI,K-562 leukemia,5.94 µM
same,TGI,BT-549 breast,4.15 µM
same,TGI,CAKI-1 renal,3.22 µM
same,TGI,MDA-MB-435,2.86 µM
same,TGI,NCI-H226 lung,6.08 µM
same,TGI,NCI-H23 lung,3.14 µM
same,TGI,HS 578T breast,5.26 µM
same,TGI,LOX IMVI melanoma,3.29 µM
same,TGI,RXF 393 renal,3.65 µM
same,TGI,RPMI-8226 leukemia,4.9 µM
same,TGI,OVCAR-5 ovarian,2.85 µM
same,TGI,COLO 205 colon,3.41 µM
same,TGI,SR leukemia,5.24 µM
same,TGI,SF-539 CNS,3.02 µM
same,TGI,OVCAR-4 ovarian,3.28 µM
